Results taken from patent publication US20250387355A1 (SpringWorks Therapeutics Inc., priority 2024, published 2025).

Tested on: NF1-associated plexiform neurofibromas (PNs)
Assay: Phase 2b trial of mirdametinib: efficacy by volumetric MRI per REiNS criteria (BICR)
Format: in vivo, human
Conditions: for DoR ≥12 months, %: responders, first DoR line (r12)
Description: Study treatment was administered orally at a twice daily (BID) dose specified in the table below. Dosing was on a 28-day Cycle (4-week course) with a 3 week on/1 week off schedule. The treatment period will last for up to 24 Cycles followed by a 30-day Safety Follow-Up period.
A partial response was defined as PN decrease ≥20% compared to baseline using centrally read MRI volumetric analysis.
The major efficacy outcome measure was confirmed objective response rate (ORR), defined as the percentage of patients with complete response (disappearance of the target PN) or confirmed partial response (≥20% reduction in PN volume confirmed at a subsequent tumor assessment within 2-6 months during the 24-cycle treatment phase). Responses were assessed by blinded independent central review (BICR) using volumetric magnetic resonance imaging (MRI) analysis per Response Evaluation in Neurofibromatosis and Schwannomatosis (REiNS) criteria. A secondary efficacy objective was to determine the duration of response for patients who achieved a confirmed objective response.

With O=C(NOC[C@H](O)CO)c1ccc(F)c(F)c1Nc1ccc(I)cc1F (single isomer, unassigned) [mirdametinib] the “Confirmed Complete Response, n (%)” value (Adult (N = 58)) was 0, the “Confirmed Objective Response Rate per REINS criteria by BICR, (%)” value (Adult (N = 58)) was “(41) %” and the “Confirmed Partial Response, (%)” value (Adult (N = 58)) was “(41) %”. The “DoR ≥12 months, %” value (Adult) was “(88%)”, the “Confirmed Complete Response, n (%)” value (Pediatric (N = 56)) was 0 and the “Confirmed Objective Response Rate per REINS criteria by BICR, (%)” value (Pediatric (N = 56)) was “(52) %”. For the same compound, the “Confirmed Partial Response, (%)” value (Pediatric (N = 56)) was “(52) %” and the “DoR ≥12 months, %” value (Pediatric) was “(90%)”.
